Data: ChEMBL document CHEMBL1137475, “Design, synthesis, and docking studies of new 1,3,4-thiadiazole-2-thione derivatives with carbonic anhydrase inhibitory activity” (Bioorg Med Chem, 2007)

Experiments:
Carbonic anhydrase 9 = Carbonic anhydrase 9 (Homo sapiens, UniProt Q16790)
Carbonic anhydrase 2 = Carbonic anhydrase 2 (Homo sapiens, UniProt P00918)
Carbonic anhydrase 1 = Carbonic anhydrase 1 (Homo sapiens, UniProt P00915)
Chain of Carbonic anhydrase 1 (P00915 whole entry): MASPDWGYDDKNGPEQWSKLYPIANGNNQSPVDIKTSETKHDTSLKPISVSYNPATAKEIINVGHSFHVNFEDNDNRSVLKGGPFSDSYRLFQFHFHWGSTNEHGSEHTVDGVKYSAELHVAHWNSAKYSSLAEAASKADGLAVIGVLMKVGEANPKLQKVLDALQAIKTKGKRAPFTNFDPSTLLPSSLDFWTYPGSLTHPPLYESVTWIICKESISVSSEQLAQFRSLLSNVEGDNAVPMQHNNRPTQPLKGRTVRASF

Ki (Carbonic anhydrase 9) [µM]	Ki (Carbonic anhydrase 2) [µM]	Ki (Carbonic anhydrase 1) [µM]	Structure (SMILES)
10			O=C(N/N=C/c1ccc([N+](=O)[O-])cc1)Nc1n[nH]c(=S)s1
7.53			O=C(N/N=C/c1ccc(F)cc1)Nc1n[nH]c(=S)s1
20	346		COc1ccc(/C(C)=N/NC(=O)Nc2n[nH]c(=S)s2)cc1
8.43			O=C(NN=C(c1ccccc1)c1ccccc1)Nc1n[nH]c(=S)s1
9.3			NNC(=O)Nc1n[nH]c(=S)s1
21	350		C/C(=N\NC(=O)Nc1n[nH]c(=S)s1)c1ccc(O)cc1
9.4			O=C(N/N=C1\C(=O)Nc2ccccc21)Nc1n[nH]c(=S)s1
23	354		O=C(N/N=C/c1ccccc1)Nc1n[nH]c(=S)s1
5.05			O=C(N/N=C/c1cccnc1)Nc1n[nH]c(=S)s1
118			O=C(N/N=C/c1ccc(Cl)cc1)Nc1n[nH]c(=S)s1
29	412		O=C(N/N=C/c1ccccc1Cl)Nc1n[nH]c(=S)s1
22	360		O=C(N/N=C/c1ccc(Br)cc1)Nc1n[nH]c(=S)s1
10.1	236		O=C(N/N=C/c1cccc(Br)c1)Nc1n[nH]c(=S)s1
7.13			COc1cccc(/C=N/NC(=O)Nc2n[nH]c(=S)s2)c1
8.55		144	C/C(=N\NC(=O)Nc1n[nH]c(=S)s1)c1ccc(Cl)cc1
24	350		COc1ccc(/C=N/NC(=O)Nc2n[nH]c(=S)s2)cc1
6.85			C/C(=N\NC(=O)Nc1n[nH]c(=S)s1)c1ccc(Br)cc1
24	433	223	O=C(N/N=C/c1ccccc1[N+](=O)[O-])Nc1n[nH]c(=S)s1
5.75			O=C(N/N=C/c1ccco1)Nc1n[nH]c(=S)s1
3.35		125	CN(C)c1ccccc1/C=N/NC(=O)Nc1n[nH]c(=S)s1
7.44			C/C(=N\NC(=O)Nc1n[nH]c(=S)s1)c1ccccc1
7.54			C/C(=N\NC(=O)Nc1n[nH]c(=S)s1)c1ccc([N+](=O)[O-])cc1
149			C/C(=N\NC(=O)Nc1n[nH]c(=S)s1)c1ccc(C)cc1
1.25			O=C(NN=C1C(=O)Nc2ccc([N+](=O)[O-])cc21)Nc1nnc(S)s1
7.18			O=C(NN=C1C(=O)Nc2ccc(Br)cc21)Nc1nnc(S)s1
26	386		COc1cc(/C=N/NC(=O)Nc2n[nH]c(=S)s2)ccc1O
